Experimental data published in patent US12673933B2, “Aminopyrazine compounds as HPK1 inhibitor and the use thereof” (BEIGENE, LTD., priority 2019, dated 2026).

Biological target: T1, HPK1 kinase (aa1-346, Life Technologies) (Homo sapiens, UniProt Q92918)
T1 construct: HPK1 kinase (aa1-346, Life Technologies); purchased Life Technologies
T1 sequence (Q92918 1-346): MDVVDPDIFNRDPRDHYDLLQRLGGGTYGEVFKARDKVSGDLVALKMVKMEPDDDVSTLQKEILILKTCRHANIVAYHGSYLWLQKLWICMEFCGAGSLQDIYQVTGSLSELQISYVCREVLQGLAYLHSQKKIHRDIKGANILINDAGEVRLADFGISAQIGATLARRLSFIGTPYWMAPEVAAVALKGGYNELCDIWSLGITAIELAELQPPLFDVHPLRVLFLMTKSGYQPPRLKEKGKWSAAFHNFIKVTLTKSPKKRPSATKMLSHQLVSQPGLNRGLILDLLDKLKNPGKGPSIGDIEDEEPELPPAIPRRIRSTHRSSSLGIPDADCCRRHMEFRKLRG
Experiment: HPK Kinase Activity Assay at 1 mM ATP (TR-FRET)
Format: biochemical
Settings: HPK1 kinase 40 nM, 0.5 μM STK1 substrate, read-out: Enzymatic activity IC50
Description: HPK Kinase Activity Assay at 1 mM ATP
Compounds disclosed herein were tested for inhibition of HPK1 kinase (aa1-346, Life Technologies) activity in assays based on the time-resolved fluorescence-resonance energy transfer (TR-FRET) methodology. The assays were carried out in 384-well low volume black plates in a reaction mixture containing HPK1 kinase (40 nM), 1 mM ATP, 0.5 μM STK1 substrate and 0-10 μM compound in buffer containing 50 mM HEPES, 0.01% BSA, 0.1 mM Orthovanadate, 10 mM MgCl2, 1 mM DTT, pH=7.0, 0.005% Tween-20. The kinase was incubated with the compounds disclosed herein or DMSO for 60 minutes at room temperature and the reaction was initiated by the addition of ATP and STK1 substrate. After reaction at room temperature for 120 minutes, an equal volume of stop/detection solution was added according to the manufacture's instruction (CisBio). The stop/detection solution contained STK Antibody-Cryptate and XL665-conjugated streptavidin in Detection Buffer. The TR-FRET signals (ratio of fluorescence emission at 665 nm over emission at 620 nm with excitation at 337 nm wavelength) were recorded on a PHERAstar FS plate reader (BMG Labtech). Phosphorylation of STK1 substrate led to the binding of STK Antibody-Cryptate to the biotinylated STK1 substrate, which places fluorescent donor (Eu^3+ crypate) in close proximity to the accepter (Streptavidin-XL665), thus resulting in a high degree of fluorescence resonance energy transfer. The inhibition of HPK1 in presence of increasing concentrations of compounds was calculated based on the ratio of fluorescence at 665 nm to that at 620 nm. The IC50 for each compound was derived from fitting the data to the four-parameter logistic equation by Graphpad Prism software.

Row | Compound | IC50
1 | Cc1cnc(N)cc1COc1nc(-c2cc(C)c3c(c2)CN(C)CC3)cnc1N [Example 32, 3-((2-amino-5-methylpyridin-4-yl)methoxy)-5-(2,5-dimethyl-1,2,3,4-tetrahydroisoquinolin-7-yl)pyrazin-2-amine] | 5.1 nM
2 | COCCN(C)C(=O)c1cnn(-c2nc(-c3cc(C)c4c(c3)CN(C)CC4)cnc2N)c1 [Example 283, 1-(3-amino-6-(2,5-dimethyl-1,2,3,4-tetrahydroisoquinolin-7-yl)pyrazin-2-yl)-N-(2-methoxyethyl)-N-methyl-1H-pyrazole-4-carboxamide] | 6.3 nM
3 | Cc1cc(-c2cnc(N)c(-n3cc(C(=O)NCCN4CCOCC4)cn3)n2)cc2c1CCN(C)C2 [Example 299, 1-(3-amino-6-(2,5-dimethyl-1,2,3,4-tetrahydroisoquinolin-7-yl)pyrazin-2-yl)-N-(2-morpholinoethyl)-1H-pyrazole-4-carboxamide] | 8.9 nM
4 | Cc1cc(-c2cnc(N)c(OCc3ccncc3F)n2)cc2c1CCN(C)C2 [Example 8, 5-(2,5-dimethyl-1,2,3,4-tetrahydroisoquinolin-7-yl)-3-((3-fluoropyridin-4-yl)methoxy)pyrazin-2-amine] | 46 nM
5 | Cc1cc(-c2cnc(N)c(OCc3ccncc3OC3CC3)n2)cc2c1CCN(C)C2 [Example 149, 3-((3-cyclopropoxypyridin-4-yl)methoxy)-5-(2,5-dimethyl-1,2,3,4-tetrahydroisoquinolin-7-yl)pyrazin-2-amine] | 16 nM
6 | Cc1cc(-c2cnc(N)c(Oc3cnn(C(C)C)c3)n2)cc2c1CCN(C)C2 [Example 272, 5-(2,5-dimethyl-1,2,3,4-tetrahydroisoquinolin-7-yl)-3-(1-isopropyl-1H-pyrazol-4-yloxy)pyrazin-2-amine] | 8.4 nM
7 | Cc1cc(-c2cnc(N)c(Oc3cnn([C@H]4CC[C@@](C)(O)CC4)c3)n2)cc2c1CCN(C)C2 [Example 311, (1s,4s)-4-(4-(3-amino-6-(2,5-dimethyl-1,2,3,4-tetrahydroisoquinolin-7-yl)pyrazin-2-yloxy)-1H-pyrazol-1-yl)-1-methylcyclohexanol] | 7.7 nM
8 | Cc1cc(-c2cnc(N)c(OCc3ccncc3Cl)n2)cc2c1CCN(C)C2 [Example 21, 3-((3-chloropyridin-4-yl)methoxy)-5-(2,5-dimethyl-1,2,3,4-tetrahydroisoquinolin-7-yl)pyrazin-2-amine] | 35 nM
9 | Cc1cc(-c2cnc(N)c(-n3cc(C(=O)NC4CCOC4)cn3)n2)cc2c1CCN(C)C2 (centres unmarked) [Example 305, 1-(3-amino-6-(2,5-dimethyl-1,2,3,4-tetrahydroisoquinolin-7-yl)pyrazin-2-yl)-N-(tetrahydrofuran-3-yl)-1H-pyrazole-4-carboxamide] | 8.9 nM
10 | Cc1cc(-c2cnc(N)c(-n3cc(C(=O)NC4CC4)cn3)n2)cc2c1CCN(C)C2 [Example 298, 1-(3-amino-6-(2,5-dimethyl-1,2,3,4-tetrahydroisoquinolin-7-yl)pyrazin-2-yl)-N-cyclopropyl-1H-pyrazole-4-carboxamide] | 4.2 nM
11 | Cc1cc(-c2cnc(N)c(Oc3cnn(C4CCN(C)C4)c3)n2)cc2c1CCN(C)C2 (single isomer, unassigned) [Example 280A] | 12 nM
12 | Cc1cc(-c2cnc(N)c(OCc3cc(N)nc(N)c3)n2)cc2c1CCN(C)C2 [Example 222, 4-((3-amino-6-(2,5-dimethyl-1,2,3,4-tetrahydroisoquinolin-7-yl)pyrazin-2-yloxy)methyl)pyridine-2,6-diamine] | 4 nM
13 | Cc1cc(-c2cnc(N)c(-c3cn[nH]c3)n2)cc2c1CCN(C)C2 [Example 36, 5-(2,5-dimethyl-1,2,3,4-tetrahydroisoquinolin-7-yl)-3-(1H-pyrazol-4-yl)pyrazin-2-amine] | 93 nM
14 | Cc1cc(-c2cnc(N)c(-n3cc(C(=O)N(C)c4ccccc4Cl)cn3)n2)cc2c1CCN(C)C2 [Example 286, 1-(3-amino-6-(2,5-dimethyl-1,2,3,4-tetrahydroisoquinolin-7-yl)pyrazin-2-yl)-N-(2-chlorophenyl)-N-methyl-1H-pyrazole-4-carboxamide] | 3.6 nM
15 | Cc1cc(-c2cnc(N)c(Oc3cnn(CC(F)(F)F)c3)n2)cc2c1CCN(C)C2 [Example 303, 5-(2,5-dimethyl-1,2,3,4-tetrahydroisoquinolin-7-yl)-3-((1-(2,2,2-trifluoroethyl)-1H-pyrazol-4-yl)oxy)pyrazin-2-amine] | 16 nM
16 | Cc1cc(-c2cnc(N)c(-n3cc(O)cn3)n2)cc2c1CCN(C)C2 [Example 7, 1-(3-amino-6-(2,5-dimethyl-1,2,3,4-tetrahydroisoquinolin-7-yl)pyrazin-2-yl)-1H-pyrazol-4-ol] | 15 nM
17 | COc1cnccc1COc1nc(-c2cc3c(c(OC)c2)CCN(C)C3)cnc1N [Example 180, 5-(5-methoxy-2-methyl-1,2,3,4-tetrahydroisoquinolin-7-yl)-3-((3-methoxypyridin-4-yl)methoxy)pyrazin-2-amine] | 21 nM
18 | Cc1cc(-c2cnc(N)c(OCc3c(Cl)cccc3Cl)n2)cc2c1CCN(C)C2 [Example 17, 3-((2,6-dichlorobenzyl)oxy)-5-(2,5-dimethyl-1,2,3,4-tetrahydroisoquinolin-7-yl)pyrazin-2-amine] | 231 nM
19 | CCn1cc(Oc2nc(-c3cc4c(c(OC)c3)CCN(C)C4)cnc2N)cn1 [Example 274, 3-(1-ethyl-1H-pyrazol-4-yloxy)-5-(5-methoxy-2-methyl-1,2,3,4-tetrahydroisoquinolin-7-yl)pyrazin-2-amine] | 24 nM

More lines, in order of falling IC50, values ahead:

Row | IC50 | Compound
20 | 172 nM | Cc1cc(-c2cnc(N)c(-n3cc4cc(CO)ccc4n3)n2)cc2c1CCN(C)C2 [Example 5, (2-(3-amino-6-(2,5-dimethyl-1,2,3,4-tetrahydroisoquinolin-7-yl)pyrazin-2-yl)-2H-indazol-5-yl)methanol]
21 | 75 nM | Cc1cc(-c2cnc(N)c(-n3ncc4cc(CO)ccc43)n2)cc2c1CCN(C)C2 [Example 4, (1-(3-amino-6-(2,5-dimethyl-1,2,3,4-tetrahydroisoquinolin-7-yl)pyrazin-2-yl)-1H-indazol-5-yl)methanol]
22 | 67 nM | Cc1cc(-c2cnc(N)c(Oc3cnn(C4CN(S(=O)(=O)c5ccccc5)C4)c3)n2)cc2c1CCN(C)C2 [Example 296, 5-(2,5-dimethyl-1,2,3,4-tetrahydroisoquinolin-7-yl)-3-(1-(1-(phenylsulfonyl)azetidin-3-yl)-1H-pyrazol-4-yloxy)pyrazin-2-amine]
23 | 48 nM | Cc1cc(-c2cnc(N)c(Oc3cnn(CCC#N)c3)n2)cc2c1CN(C)CC2 [Example 308, 3-(4-((3-amino-6-(2,8-dimethyl-1,2,3,4-tetrahydroisoquinolin-6-yl)pyrazin-2-yl)oxy)-1H-pyrazol-1-yl)propanenitrile]
24 | 21 nM | Cc1cc(-c2cnc(N)c(OCc3ccnc(N)c3Cl)n2)cc2c1CCN(C)C2 [Example 152, 3-((2-amino-3-chloropyridin-4-yl)methoxy)-5-(2,5-dimethyl-1,2,3,4-tetrahydroisoquinolin-7-yl)pyrazin-2-amine]
25 | 20 nM | CCN1CC(n2cc(Oc3nc(-c4cc(C)c5c(c4)CN(C)CC5)cnc3N)cn2)C1 [Example 310, 5-(2,5-dimethyl-1,2,3,4-tetrahydroisoquinolin-7-yl)-3-(1-(1-ethylazetidin-3-yl)-1H-pyrazol-4-yloxy)pyrazin-2-amine]
26 | 15 nM | CCn1cc(Oc2nc(-c3cc(C)c4c(c3)CN(C)CC4)cnc2N)cn1 [Example 45, 5-(2,5-dimethyl-1,2,3,4-tetrahydroisoquinolin-7-yl)-3-(1-ethyl-1H-pyrazol-4-yloxy)pyrazin-2-amine]
27 | 14 nM | Cc1cc(-c2cnc(N)c(-n3cc(C(=O)NCCN4CCCC4)cn3)n2)cc2c1CCN(C)C2 [Example 285, 1-(3-amino-6-(2,5-dimethyl-1,2,3,4-tetrahydroisoquinolin-7-yl)pyrazin-2-yl)-N-(2-(pyrrolidin-1-yl)ethyl)-1H-pyrazole-4-carboxamide]
28 | 11 nM | CN1CCc2c(cc(-c3cnc(N)c(OCc4ccnc(N)c4)n3)cc2C(F)(F)F)C1 [Example 271, 3-((2-aminopyridin-4-yl)methoxy)-5-(2-methyl-5-(trifluoromethyl)-1,2,3,4-tetrahydroisoquinolin-7-yl)pyrazin-2-amine]
29 | 7.6 nM | Cc1cc(-c2cnc(N)c(OCc3ccncc3OC(C)C)n2)cc2c1CCN(C)C2 [Example 30, 5-(2,5-dimethyl-1,2,3,4-tetrahydroisoquinolin-7-yl)-3-((3-isopropoxypyridin-4-yl)methoxy)pyrazin-2-amine]
